Experimental data: BindingDB's records for PubMed 8301592 (Washington University, 1994)
Values joined by “and” are separate entries in the source; they are usually repeats but may differ in a detail not shown here. Equal values may be shown once.

Biological target: D(3) dopamine receptor (Rattus norvegicus, UniProt P19020)
Sequence (P19020 whole entry): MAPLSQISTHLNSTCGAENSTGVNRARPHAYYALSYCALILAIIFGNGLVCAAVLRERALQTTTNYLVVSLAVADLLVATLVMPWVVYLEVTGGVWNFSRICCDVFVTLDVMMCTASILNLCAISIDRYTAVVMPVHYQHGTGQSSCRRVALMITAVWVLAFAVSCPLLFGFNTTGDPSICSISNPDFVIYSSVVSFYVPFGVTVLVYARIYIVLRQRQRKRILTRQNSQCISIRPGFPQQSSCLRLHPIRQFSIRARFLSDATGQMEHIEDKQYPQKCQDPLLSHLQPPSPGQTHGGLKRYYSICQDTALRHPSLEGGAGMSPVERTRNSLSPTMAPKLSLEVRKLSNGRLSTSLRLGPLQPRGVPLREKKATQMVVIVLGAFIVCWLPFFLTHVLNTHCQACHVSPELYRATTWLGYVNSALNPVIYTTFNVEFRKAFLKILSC

| Compound | Ki |
| --- | --- |
| Nc1nc2c(ncn2[C@@H]2O[C@H](COP(=O)(O)OP(=O)(O)NP(=O)(O)O)[C@@H](O)[C@H]2O)c(=O)[nH]1 [Guanylyl imidodiphosphate] | 264 nM and 617 nM |
| CCc1cc(Cl)c(OC)c(C(=O)NC[C@@H]2CCCN2CC)c1O [3-Chloro-5-ethyl-N-((S)-1-ethyl-pyrrolidin-2-ylmethyl)-6-hydroxy-2-methoxy-benzamide] | 0.16 nM and 0.46 nM |
